Tests used:
[1] = tested on: Plasmodium falciparum; experiment: Antiplasmodial activity against Plasmodium falciparum 3D7 infected in human erythrocytes after 72 hrs by SYBR green 1-based fluorimetric assay; type: functional, organism-based; settings: 3D7, 72 h
[2] = Inhibition of Plasmodium falciparum choline kinase using [1-14C]ethanolamine as substrate assessed as reduction in rate of incorporation of […] preincubated for 5 mins followed by substrate addition measured after 10 mins by liquid scintillation counter
[3] = Inhibition of Plasmodium falciparum choline kinase using [methyl-14C]choline as substrate assessed as reduction in rate of incorporation of 14C from [methyl-14C]choline into phosphocholine preincubated for 5 mins followed by substrate addition measured after 10 mins by liquid scintillation counter
[4] = biological target: T1, Choline kinase (Plasmodium falciparum (isolate 3D7), UniProt Q8IM71); experiment: Inhibition of Plasmodium falciparum 3D7 choline kinase expressed in Escherichia coli BL21(DE3) assessed as reduction in phosphocholine formation
T1 sequence (Q8IM71 whole entry): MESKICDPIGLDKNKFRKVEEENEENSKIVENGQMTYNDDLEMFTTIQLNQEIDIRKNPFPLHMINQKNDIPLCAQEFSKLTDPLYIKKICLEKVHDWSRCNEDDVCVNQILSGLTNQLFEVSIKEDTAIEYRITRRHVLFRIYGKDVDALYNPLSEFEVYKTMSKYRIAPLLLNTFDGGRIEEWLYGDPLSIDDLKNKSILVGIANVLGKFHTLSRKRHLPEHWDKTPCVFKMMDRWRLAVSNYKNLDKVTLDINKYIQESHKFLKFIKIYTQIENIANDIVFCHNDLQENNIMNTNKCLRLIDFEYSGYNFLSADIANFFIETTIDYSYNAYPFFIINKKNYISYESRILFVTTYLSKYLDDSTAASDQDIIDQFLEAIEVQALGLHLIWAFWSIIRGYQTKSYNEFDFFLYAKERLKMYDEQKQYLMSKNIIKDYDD

[5] = tested on: Plasmodium falciparum; experiment: Antiplasmodial activity against Plasmodium falciparum Dd2 infected in human erythrocytes after 48 hrs by picogreen-microfluorimetric assay; type: functional, organism-based; settings: Dd2, 48 h
[6] = biological target: Choline kinase alpha (Homo sapiens, UniProt P35790); experiment: Inhibition of human choline kinase alpha1 using [methyl-14C]choline as substrate assessed as reduction in rate of incorporation of 14C from [methyl-14C]choline into phosphocholine preincubated for 5 mins followed by substrate addition measured after 10 mins by scintillation counting
Choline kinase alpha, sequence (P35790 whole entry): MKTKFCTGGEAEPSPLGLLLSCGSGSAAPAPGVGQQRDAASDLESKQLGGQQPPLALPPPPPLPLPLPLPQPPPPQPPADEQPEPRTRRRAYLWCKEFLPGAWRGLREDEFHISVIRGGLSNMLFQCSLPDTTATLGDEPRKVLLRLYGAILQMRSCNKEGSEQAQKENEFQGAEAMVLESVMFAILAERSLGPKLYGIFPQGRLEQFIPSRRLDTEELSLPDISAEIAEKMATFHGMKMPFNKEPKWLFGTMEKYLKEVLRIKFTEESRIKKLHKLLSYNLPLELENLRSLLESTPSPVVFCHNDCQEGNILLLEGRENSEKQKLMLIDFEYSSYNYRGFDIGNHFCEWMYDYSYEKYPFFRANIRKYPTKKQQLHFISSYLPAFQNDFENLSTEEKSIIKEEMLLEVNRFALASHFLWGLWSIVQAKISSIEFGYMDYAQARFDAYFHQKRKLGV

IC50 [1] [nM]	SMILES	IC50 ([2]; read-out: IC50) [nM]	IC50 [3] [nM]	IC50 [4] [nM]	IC50 [5] [nM]	IC50 [2]	IC50 [6] [nM]
142	c1ccc2c(c1)c(N1CCCCCC1)cc[n+]2Cc1ccc(OCCOc2ccc(C[n+]3ccc(N4CCCCCC4)c4ccccc43)cc2)cc1	> 15000	2360				
35	Clc1ccc2c(N3CCCCCC3)cc[n+](Cc3ccc(OCCOc4ccc(C[n+]5ccc(N6CCCCCC6)c6ccc(Cl)cc65)cc4)cc3)c2c1	> 50000	10900				
369	CN(c1ccc(Cl)cc1)c1cc[n+](Cc2ccc(OCCOc3ccc(C[n+]4ccc(N(C)c5ccc(Cl)cc5)c5ccc(Cl)cc54)cc3)cc2)c2cc(Cl)ccc12		6470				
177	CN(c1ccccc1)c1cc[n+](Cc2ccc(OCCOc3ccc(C[n+]4ccc(N(C)c5ccccc5)c5ccc(Cl)cc54)cc3)cc2)c2cc(Cl)ccc12						
3	CN(C)c1cc[n+](Cc2ccc(CCCCc3ccc(C[n+]4ccc(N5CCCC5)cc4)cc3)cc2)cc1	6000	103000				
16	CN(C)c1cc[n+](Cc2ccc(OCCOc3ccc(C[n+]4ccc(N(C)C)cc4)cc3)cc2)cc1.[Br-].[Br-]		≥ 100000			Not Active	
162	CN(c1ccccc1)c1cc[n+](Cc2ccc(OCCOc3ccc(C[n+]4ccc(N(C)c5ccccc5)c5ccccc54)cc3)cc2)c2ccccc12						
16	[Br-].[Br-].c1cc(OCCOc2ccc(C[n+]3ccc(N4CCCC4)cc3)cc2)ccc1C[n+]1ccc(N2CCCC2)cc1		50000			Not Active	
149	CN(c1ccc(Cl)cc1)c1cc[n+](Cc2ccc(OCCOc3ccc(C[n+]4ccc(N(C)c5ccc(Cl)cc5)c5ccccc54)cc3)cc2)c2ccccc12		2520				
	CN(C)c1cc[n+](Cc2ccc(-c3ccc(C[n+]4ccc(N5CCCC5)cc4)cc3)cc2)cc1	12000	276000				

SMILES	IC50 [1] [nM]	IC50 ([2]; read-out: IC50) [nM]	IC50 [3] [nM]	IC50 [4] [nM]	IC50 [5] [nM]	IC50 [2]	IC50 [6] [nM]
Clc1ccc2c(N3CCCC3)cc[n+](Cc3ccc(OCCOc4ccc(C[n+]5ccc(N6CCCC6)c6ccc(Cl)cc65)cc4)cc3)c2c1	59		14100				
CN(c1ccc(Cl)cc1)c1cc[n+](Cc2ccc(-c3ccc(C[n+]4ccc(N(C)c5ccc(Cl)cc5)c5ccccc54)cc3)cc2)c2ccccc12 [RSM-932A]	26.5		1750	1750	26.5		
OC1C[N+]2(Cc3ccc(OCCOc4ccc(C[N+]56CCC(CC5)C(O)C6)cc4)cc3)CCC1CC2 (stereo not given)	1690						
C[N+]1(C)CCOC(O)(c2ccc(-c3ccc(C4(O)C[N+](C)(C)CCO4)cc3)cc2)C1 (stereo not given) [HEMICHOLINIUM-3]	> 50000		250000	250000	> 50000		
CN(C)c1cc[n+](Cc2ccc(CCCCc3ccc(C[n+]4ccc(N(C)C)cc4)cc3)cc2)cc1	3.5		106000	106000	3.5		780
c1cc(OCCOc2ccc(C[N+]34CCC(CC3)CC4)cc2)ccc1C[N+]12CCC(CC1)CC2	177						

— ChEMBL document CHEMBL4118254, “1,2-Diphenoxiethane salts as potent antiplasmodial agents” (Bioorg Med Chem Lett, 2018)
